Experimental findings from patent US20040063165A1, “Light-activated in vitro assay process for luciferase bioluminescence” (priority 2003, published 2004) are described below.

In assay [1] the test system is Firefly luciferase enzyme. The conditions noted are these: 1 millisecond UV pulse, Xenon lamp; pulse power varied 40, 60, 80 mJ per pulse; D-Luciferin the limiting factor.
Protocol: In this experiment, caged D-Luciferin was utilized to control the reaction.
Functional D-Luciferin was delivered to the reaction from caged D-Luciferin upon exposure of the reaction components to a pulse of UV light with suitable power.
Firefly luciferase enzyme dissolved in Tricine buffer pH 7.8 (50 mM N-Tris (hydroxymethyl) methylglycine) adjusted with NaOH, supplied by Kikkoman Catalog LUC T
5 mM Mg citrate in PBS, pH 7.4-
100 mM ATP solution, pH 7.5 (Amersham Pharmacia, Catalog No. 272056).
In a total reaction volume of 25 μL, the following components were added as solutions to a suitable cell:
10 μL of luciferase solution
5 μL of 5 mM Mg citrate in PBS
5 μL of 1 mM ATP solution
5 μL caged D-Luciferin solution.
The cell with the components was exposed to a pulse of UV (1 millisecond_pulse by a Xenon Lamp, Rapp Optoelectronic). The power of the UV pulse was varied (40, 60, 80 mJ per pulse).
Assay [2] concerns luciferase. Briefly: UV uncaging of caged ATP to trigger luciferase chemiluminescent reaction (Example 1). Format: biochemical. The conditions noted are these: 1 millisecond UV pulse, Xenon lamp; pulse power varied 40, 60, 80 mJ per pulse; ATP the limiting factor. The procedure:
In this experiment, caged ATP was utilized to control the reaction. […] Reagents:
Lyophilized luciferase/lyophilized D-Luciferin were dissolved in Tricine buffer [50 mM N-tris(hydroxymethyl)methylglycine, adjusted with NaOH to pH 7.8, Lot 1418] both supplied by Kikkoman as assay kit, CheckLite HS Plus, Catalog # 60342).
5 mM Mg citrate in phosphate buffered saline (PBS, pH 7.4)
Caged ATP (p-(1-(4,5-dimethoxy-2-nitrophenyl)ether, disodium salt-caged adenosine-5-triphosphate) in methanol, 5 mg in 300 μL (Molecular probes, Catalog # A-1049).
In a total reaction volume of 20 μL, the following were mixed in a suitable reaction cell
10 μL of Luciferase/D-Luciferin solution mix,
5 μL of 5 mM Mg Citrate in PBS
5 μL of caged ATP solution.

Take “1-(4,5-dimethoxy-2-nitrophenyl)ethyl ester—caged D-luciferin”: the “amount of light released from the reaction” value in assay [1] is listed as “increased with the increase of the UV pulse power”. Take `COc1cc(C(C)OP(=O)([O-])OP(=O)(O)OP(=O)([O-])OCC2OC(n3cnc4c(N)ncnc43)C(O)C2O)c([N+](=O)[O-])cc1OC.[Na+].[Na+]` (centres unmarked) [caged ATP, p-(1-(4,5-dimethoxy-2-nitrophenyl)ether, disodium salt-cagedadenosine-5-triphosphate)]: the “amount of light released from the reaction” value in assay [2] is “increased with the increase of the UV pulse power”.
